In patent US12410171B2, “Tropomyosin receptor kinase (TRK) degradation compounds and methods of use” (Cullgen (Shanghai), Inc., priority 2020, dated 2025):
Read-outs that look alike come from different tables or passages of the source.

Tests used:
TPM3-TRKA fusion protein = target: T1, TPM3-TRKA fusion protein (Homo sapiens, UniProt P04629); assay: TPM3-TRKA fusion protein levels in KM12 cells (Western blot); type: cell-based; conditions: read-out: Degradation (at 10 nM)
T1 construct: The resulted chimeric proteins always retain the kinase domain of TRK proteins; TPM3 (fusion partner, N-terminal part of tropomyosin alpha-3, P06753); endogenous in cells; host or cells: KM12 colon cancer cells; the other entry of the earlier key: TPM3 (P06753, Tropomyosin alpha-3 chain)
In short: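 KM12 colon cancer cells were treated with DMSO or compounds at 0.1–100 nM, 0.4–30 nM or other stated concentrations for 4, 8–16 or 16 h. RIPA lysates were BCA-normalized and resolved by SDS-PAGE. TPM3-TRKA was detected by chemiluminescent Western blot, with bands quantified by densitometry.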

KM12 cells = assay: KM12 cell viability (CellTiter-Glo); type: cell-based; conditions: Homo sapiens
In short: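 KM12 cells seeded at 5000 per well in RPMI 1640 + 10% FBS and exposed 3 days to serial dilutions (11-point 3-fold, 8-point 3-fold from 1000 nM, or 12-point 2-fold). Viability by CellTiter-Glo; IC50 from least-squares nonlinear regression.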

[1] = 16 h, TPM3-TRKA degradation in KM12 cells at 10 nM compound, category of percentage degradation
[2] = 72 h, KM12 cell viability, CellTiter-Glo, three days treatment, read-out: IC50
[3] = 16 h, TPM3-TRKA degradation in KM12 cells at 10 nM
[4] = 72 h, KM12 cell viability, 11-point 3-fold serial dilution, 3 days, CellTiter-Glo, read-out: IC50

T1 sequence (P04629 with tags, fused parts or gaps): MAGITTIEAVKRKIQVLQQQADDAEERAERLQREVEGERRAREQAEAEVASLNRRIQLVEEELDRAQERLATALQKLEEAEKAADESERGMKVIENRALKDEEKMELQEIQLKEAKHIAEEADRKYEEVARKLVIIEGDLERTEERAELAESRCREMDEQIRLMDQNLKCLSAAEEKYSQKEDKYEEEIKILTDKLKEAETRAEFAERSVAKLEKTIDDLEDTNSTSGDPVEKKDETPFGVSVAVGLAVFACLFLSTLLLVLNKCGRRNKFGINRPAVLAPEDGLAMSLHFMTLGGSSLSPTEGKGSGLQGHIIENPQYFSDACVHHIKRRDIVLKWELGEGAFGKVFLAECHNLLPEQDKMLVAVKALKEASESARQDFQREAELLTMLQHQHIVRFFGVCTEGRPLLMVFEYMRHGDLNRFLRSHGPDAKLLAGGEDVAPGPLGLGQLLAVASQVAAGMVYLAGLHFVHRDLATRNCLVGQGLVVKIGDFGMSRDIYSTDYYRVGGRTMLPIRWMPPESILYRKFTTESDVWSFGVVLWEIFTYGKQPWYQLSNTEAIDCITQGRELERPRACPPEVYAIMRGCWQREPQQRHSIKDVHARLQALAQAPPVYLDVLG

| Structure (SMILES) | percent degradation of TPM3-TRKA protein at 0.01 µM (TPM3-TRKA fusion protein; [1]) | IC50 (KM12 cells; [2]) | other results |
| --- | --- | --- | --- |
| Cn1c(=O)n(C2CCC(=O)NC2=O)c2cccc(C#CCN3CCN(c4cccc(-c5cnc6ccc(N7CCC[C@@H]7c7cccc(F)c7)nn56)n4)CC3)c21 (stereo partly drawn) [TR-238, 3-(4-(3-(4-(6-(6-((R)-2-(3-Fluorophenyl)pyrrolidin-1-yl)imidazo[1,2-b]pyridazin-3-yl)pyridin-2-yl)piperazin-1-yl)prop-1-yn-1-yl)-3-methyl-2-oxo-2,3-dihydro-1H-benzo[d]imidazol-1-yl)piperidine-2,6-dione] | – | – | percent degradation of TPM3-TRKA protein at 0.01 µM (TPM3-TRKA fusion protein; KM12, 16 h): > 80%; IC50 (KM12 cells; KM12, 72 h): 16.2 nM |
| O=C1CCC(n2c(=O)oc3c(NCCN4CCN(c5cccc(-c6cnc7ccc(N8CCC[C@@H]8c8cccc(F)c8)nn67)n5)CC4)cccc32)C(=O)N1 (stereo partly drawn) [TR-247, 3-(7-((2-(4-(6-(6-((R)-2-(3-Fluorophenyl)pyrrolidin-1-yl)imidazo[1,2-b]pyridazin-3-yl)pyridin-2-yl)piperazin-1-yl)ethyl)amino)-2-oxobenzo[d]oxazol-3 (2H)-yl)piperidine-2,6-dione] | > 80% | 8.2 nM | – |
| O=C1CCC(N2Cc3cc(NCC(=O)N4CCN(c5cccc(-c6cnc7ccc(N8CCC[C@@H]8c8cccc(F)c8)nn67)n5)CC4)ccc3C2=O)C(=O)N1 (stereo partly drawn) [TR-190, 3-(5-((2-(4-(6-(6-((R)-2-(3-fluorophenyl)pyrrolidin-1-yl)imidazo[1,2-b]pyridazin-3-yl)pyridin-2-yl)piperazin-1-yl)-2-oxoethyl)amino)-1-oxoisoindolin-2-yl)piperidine-2,6-dione] | > 80% | 8.7 nM | – |
| O=C1CCC(N2Cc3ccc(C4CN(C5CCN(c6cccc(-c7cnc8ccc(N9CCC[C@@H]9c9cccc(F)c9)nn78)n6)CC5)C4)cc3C2=O)C(=O)N1 (stereo partly drawn) [TR-309, 3-(6-(1-(1-(6-(6-((R)-2-(3-fluorophenyl)pyrrolidin-1-yl)imidazo[1,2-b]pyridazin-3-yl)pyridin-2-yl)piperidin-4-yl)azetidin-3-yl)-1-oxoisoindolin-2-yl)piperidine-2,6-dione] | – | 4.3 nM | percent degradation of TPM3-TRKA protein at 0.01 µM (TPM3-TRKA fusion protein; KM12, 16 h): 50 to 80% |
| O=C1CCC(N2C(=O)c3ccc(N4CCN(c5ccc(C(=O)Nc6n[nH]c7ccc(Cc8cc(F)cc(F)c8)cc67)c(NC6CCOCC6)c5)CC4)cc3C2=O)C(=O)N1 (stereo not drawn) [TR-269, N-(5-(3,5-Difluorobenzyl)-1H-indazol-3-yl)-4-(4-(2-(2,6-dioxopiperidin-3-yl)-1,3-dioxoisoindolin-5-yl)piperazin-1-yl)-2-((tetrahydro-2H-pyran-4-yl)amino)benzamide] | < 50% | 44.6 nM | – |
| O=C1CCC(N2C(=O)c3ccc(C4CN(C5CCN(c6cccc(-c7cnc8ccc(N9CCC[C@@H]9c9cccc(F)c9)nn78)n6)CC5)C4)cc3C2=O)C(=O)N1 (stereo partly drawn) [TR-308, 2-(2,6-dioxopiperidin-3-yl)-5-(1-(1-(6-(6-((R)-2-(3-fluorophenyl)pyrrolidin-1-yl)imidazo[1,2-b]pyridazin-3-yl)pyridin-2-yl)piperidin-4-yl)azetidin-3-yl)isoindoline-1,3-dione] | – | 11.8 nM | percent degradation of TPM3-TRKA protein at 0.01 µM (TPM3-TRKA fusion protein; KM12, 16 h): > 80% |
| COc1ccc(COc2ccc(Cn3c(N)nc4cc(-c5cnn(CC(=O)NCCCCNc6cccc7c6C(=O)N(C6CCC(=O)NC6=O)C7=O)c5)cnc43)cc2OC)cc1 (stereo not drawn) [CPD-499, 2-(4-(2-amino-3-(3-methoxy-4-((4-methoxybenzyl)oxy)benzyl)-3H-imidazo[4,5-b]pyridin-6-yl)-1H-pyrazol-1-yl)-N-(4-((2-(2,6-dioxopiperidin-3-yl)-1,3-dioxoisoindolin-4-yl)amino)butyl)acetamide] | – | – | percent degradation of TPM3-TRKA protein at 0.01 µM (TPM3-TRKA fusion protein; [3]): > 80%; IC50 (KM12 cells; [4]): 11.3 nM |
| O=C1CCC(N2C[C@H](c3ccc(C#CCN4CCN(c5cccc(-c6cnc7ccc(N8CCCC8c8cccc(F)c8)nn67)n5)CC4)cc3)OC2=O)C(=O)N1 (stereo in doubt) [TR-224, 3-((S)-5-(4-(3-(4-(6-(6-((S)-2-(3-fluorophenyl)pyrrolidin-1-yl)imidazo[1,2-b]pyridazin-3-yl)pyridin-2-yl)piperazin-1-yl)prop-1-yn-1-yl)phenyl)-2-oxooxazolidin-3-yl)piperidine-2,6-dione] | > 80% | 8.7 nM | – |
| Cn1c(=O)n(C2CCC(=O)NC2=O)c2cccc(NCCN3CCN(c4ccc(C(=O)Nc5n[nH]c6ccc(Cc7cc(F)cc(F)c7)cc56)c(NC5CCOCC5)c4)CC3)c21 (stereo not drawn) [TR-325, N-(5-(3,5-difluorobenzyl)-1H-indazol-3-yl)-4˜ (4-(2-((1-(2,6-dioxopiperidin-3-yl)-3-methyl-2-oxo-2,3-dihydro-1H-benzo[d]imidazol-4-yl)amino)ethyl)piperazin-1-yl)-2-((tetrahydro-2H-pyran-4-yl)amino)benzamide] | – | – | percent degradation of TPM3-TRKA protein at 0.01 µM (TPM3-TRKA fusion protein; KM12, 16 h): > 80%; IC50 (KM12 cells; KM12, 72 h): 13 nM |
| NC(=O)C1CCN(c2cc(CN3CCN(C(=O)CCNc4cccc5c4C(=O)N(C4CCC(=O)NC4=O)C5=O)CC3)ccc2NC(=O)c2coc(N3CCOCC3)n2)CC1 (stereo not drawn) [CPD-479, N-(2-(4-carbamoylpiperidin-1-yl)-4-((4-(3-((2-(2,6-dioxopiperidin-3-yl)-1,3-dioxoisoindolin-4-yl)amino)propanoyl)piperazin-1-yl)methyl)phenyl)-2-morpholinooxazole-4-carboxamide] | – | – | percent degradation of TPM3-TRKA protein at 0.01 µM (TPM3-TRKA fusion protein; [3]): 50 to 80%; IC50 (KM12 cells; [4]): 132 nM |
| NC(=O)C1CCN(c2cc(CN3CCN(C(=O)CCCCCCNc4cccc5c4C(=O)N(C4CCC(=O)NC4=O)C5=O)CC3)ccc2NC(=O)c2coc(N3CCOCC3)n2)CC1 (stereo not drawn) [CPD-483, N-(2-(4-carbamoylpiperidin-1-yl)-4-((4-(7-((2-(2,6-dioxopiperidin-3-yl)-1,3-dioxoisoindolin-4-yl)amino)heptanoyl)piperazin-1-yl)methyl)phenyl)-2-morpholinooxazole-4-carboxamide] | – | – | percent degradation of TPM3-TRKA protein at 0.01 µM (TPM3-TRKA fusion protein; [3]): > 80%; IC50 (KM12 cells; [4]): 5.5 nM |

The next lines start with results.

| percent degradation of TPM3-TRKA protein at 0.01 µM (TPM3-TRKA fusion protein; [1]) | Structure (SMILES) | IC50 (KM12 cells; [2]) | other results |
| --- | --- | --- | --- |
| 50 to 80% | O=C1CCC(n2nnc3cccc(N4CC(CN5CCN(c6cccc(-c7cnc8ccc(N9CCC[C@@H]9c9cccc(F)c9)nn78)n6)CC5)C4)c3c2=O)C(=O)N1 (stereo partly drawn) [TR-296] | 22 nM | – |
| > 80% | O=C1CCC(N2Cc3ccc(N4CC(N5CCN(c6ccc(C(=O)Nc7n[nH]c8ccc(Cc9cc(F)cc(F)c9)cc78)c(NC7CCOCC7)c6)CC5)C4)cc3C2=O)C(=O)N1 (stereo not drawn) [TR-336, N—(S-(3,5-difluorobenzyl)-1H-indazol-3-yl)-4-(4-(1-(2-(2,6-dioxopiperidin-3-yl)-3-oxoisoindolin-5-yl)azetidin-3-yl)piperazin-1-yl)-2-((tetrahydro-2H-pyran-4-yl)amino)benzamide] | 3.2 nM | – |
| > 80% | Cn1c(=O)n(C2CCC(=O)NC2=O)c2cccc(CCCN3CCN(c4ccc(C(=O)Nc5n[nH]c6ccc(Cc7cc(F)cc(F)c7)cc56)c(NC5CCOCC5)c4)CC3)c21 (stereo not drawn) [TR-305, N-(5-(3,5˜Difluorobenzyl)-1H-indazol-3-yl)-4-(4-(3-(1-(2,6-dioxopiperidin-3-yl)-3-methyl-2-oxo-2,3-dihydro-1H-benzo[d]imidazol-4-yl)propyl)piperazin-1-yl)-2-((tetrahydro-2H-pyran-4-yl)amino)benzamide] | 2.5 nM | – |
| > 80% | O=C1CCC(N2Cc3cc(N4CC(N5CCN(c6cccc(-c7cnc8ccc(N9CCC[C@@H]9c9cccc(F)c9)nn78)n6)CC5)C4)ccc3C2=O)C(=O)N1 (stereo partly drawn) [TR-331, 3-(5-(3-(4-(6-(6-((R)-2-(3-fluorophenyl)pyrrolidin-1-yl)imidazo[1,2-b]pyridazin-3-yl)pyridin-2-yl)piperazin-1-yl)azetidin-1-yl)-1-oxoisoindolin-2-yl)piperidine-2,6-dione] | 1.6 nM | – |
| > 80% | Cn1c(=O)n(C2CCC(=O)NC2=O)c2ccc(N3CC(CN4CCN(c5ccc(C(=O)Nc6n[nH]c7ccc(Cc8cc(F)cc(F)c8)cc67)c(NC6CCOCC6)c5)CC4)C3)cc21 (stereo not drawn) [TR-321, N-(5-(3,5-difluorobenzyl)-1H-indazol-3-yl)-4-(4-((1-(1-(2,6-dioxopiperidin-3-yl)-3-methyl-2-oxo-2,3-dihydro-1H-benzo[d]imidazol-5-yl)azetidin-3-yl)methyl)piperazin-1-yl)-2-((tetrahydro-2H-pyran-4-yl)amino)benzamide] | 2.3 nM | – |
| > 80% | O=C1CCC(N2C(=O)c3cccc(CN4CC(CN5CCN(c6cccc(-c7cnc8ccc(N9CCC[C@@H]9c9cccc(F)c9)nn78)n6)CC5)C4)c3C2=O)C(=O)N1 (stereo partly drawn) [TR-294, 2-(2,6-Dioxopiperidin-3-yl)-4-((3-((4-(6-(6-((R)-2-(3-fluorophenyl)pyrrolidin-1-yl)imidazo[1,2-b]pyridazin-3-yl)pyridin-2-yl)piperazin-1-yl)methyl)azetidin-1-yl)methyl)isoindoline-1,3-dione] | 12.5 nM | – |
| > 80% | Cn1c(=O)n(C2CCC(=O)NC2=O)c2cccc(C#CCCN3CCN(c4ccc(C(=O)Nc5n[nH]c6ccc(Cc7cc(F)cc(F)c7)cc56)c(NC5CCOCC5)c4)CC3)c21 (stereo not drawn) [TR-306, N-(5-(3,5-difluorobenzyl)-1H-indazol-3-yl)-4-(4-(4-(1-(2,6-dioxopiperidin-3-yl)-3-methyl-2-oxo-2,3-dihydro-1H-benzo[d]imidazol-4-yl)but-3-yn-1-yl)piperazin-1-yl)-2-((tetrahydro-2H-pyran-4-yl)amino)benzamide] | 4 nM | – |
